Assay results as given in PMC5674823, “Cloning, expression and identification of KTX-Sp4, a selective Kv1.3 peptidic blocker from Scorpiops pococki” (Cell & Bioscience, 2017).
Bridge positions count the residues as written; N and C are the ends. Ends that are not written are not given here.

Columns and labels:
mKv1.1-AEHS/PSGN = target: T1, mKv1.1-AEHS/PSGN (Mus musculus, UniProt P16388, A352P/E353S/H355G/S357N); test: Whole-cell patch-clamp, turret mutant Kv1.1-AEHS/PSGN expressed in HEK293T cells; format: cell-based; conditions: four Kv1.1 turret residues replaced by those of Kv1.3, mean ± SE of six experiments, SEM, read-out: IC50 on Kv1.1-AEHS/PGSN mutant channel
T1 construct: expressed in transfected cells; host or cells: HEK293T cells, pIRES2-EGFP vector
T1 sequence (P16388 whole entry A352P/E353S/H355G/S357N): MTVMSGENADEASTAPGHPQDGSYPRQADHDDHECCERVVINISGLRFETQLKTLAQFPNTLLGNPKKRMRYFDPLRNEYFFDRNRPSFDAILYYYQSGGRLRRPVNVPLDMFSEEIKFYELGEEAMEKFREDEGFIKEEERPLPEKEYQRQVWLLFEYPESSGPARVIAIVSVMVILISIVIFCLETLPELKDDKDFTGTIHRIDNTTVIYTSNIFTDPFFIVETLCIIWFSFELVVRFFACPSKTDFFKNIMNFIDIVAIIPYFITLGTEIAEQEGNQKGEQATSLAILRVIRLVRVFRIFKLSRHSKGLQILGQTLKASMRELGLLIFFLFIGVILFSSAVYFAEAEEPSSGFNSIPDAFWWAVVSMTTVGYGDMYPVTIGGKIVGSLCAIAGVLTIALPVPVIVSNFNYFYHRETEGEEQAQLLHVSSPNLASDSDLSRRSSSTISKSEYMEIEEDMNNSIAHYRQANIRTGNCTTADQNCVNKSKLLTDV
Protocol: (§1) Jurkat E6-1 T cells (ATCC TIB152) and HEK293T cells (ATCC ACS4500) were maintained in RPMI medium 1640 (Invitrogen, Carlsbad, CA, USA) and Dulbecco’s modified Eagle’s medium (DMEM) (Life Technologies, GrandIsland, NY, USA), supplemented with 10% fetal bovine serum (Life Technologies), 100 units/ml penicillin, 100 μg/ml streptomycin, respectively. Cells were cultured in a humidified incubator at 37 °C with 5% CO2. The cDNAs encoding mKv1.1, mKv1.1-AEHS/PSGN, hKv1.2 and mKv1.3 [18] were subcloned into the XhoI/BamHI sites of a bicistronic vector, pIRES2-EGFP (Clontech, USA), then transiently transfected into HEK293-T cells using Lipofectamine 2000 (Invitrogen) for electrophysiological experiments.
(§2) Whole-cell patch-clamp recordings were performed using an EPC 9 amplifier (HEKA Elektronik, Lambrecht/Pfalz, Germany) at room temperature (22–24 °C). Pipettes pulled from borosilicate glass (BF 150-86-10; Sutter Instrument Company, Novato, CA, USA) had resistances of 2–4 MΩ when filled with the internal solution. The internal pipette solution for recording Kv currents on DRG neurons contained: 120 mM potassium gluconate, 20 mM KCl, 10 mM EGTA, 10 mM HEPES, 5 mM Na2-ATP, 2 mM MgCl2, 1 mM CaCl2 (pH 7.3 withKOH). […]

mKv1.1 = test: Whole-cell patch-clamp, Kv1.1 heterologously expressed in HEK293T cells; format: cell-based, mouse; conditions: 1 μM peptide
Protocol: as §1, §2

mKv1.3 = target: T2, mKv1.3 (Mus musculus, UniProt P16390); test: Whole-cell patch-clamp, mKv1.3 heterologously expressed in HEK293T cells; format: cell-based
T2 construct: expressed in transfected cells; host or cells: HEK293T cells, pIRES2-EGFP vector
T2 sequence (P16390 whole entry): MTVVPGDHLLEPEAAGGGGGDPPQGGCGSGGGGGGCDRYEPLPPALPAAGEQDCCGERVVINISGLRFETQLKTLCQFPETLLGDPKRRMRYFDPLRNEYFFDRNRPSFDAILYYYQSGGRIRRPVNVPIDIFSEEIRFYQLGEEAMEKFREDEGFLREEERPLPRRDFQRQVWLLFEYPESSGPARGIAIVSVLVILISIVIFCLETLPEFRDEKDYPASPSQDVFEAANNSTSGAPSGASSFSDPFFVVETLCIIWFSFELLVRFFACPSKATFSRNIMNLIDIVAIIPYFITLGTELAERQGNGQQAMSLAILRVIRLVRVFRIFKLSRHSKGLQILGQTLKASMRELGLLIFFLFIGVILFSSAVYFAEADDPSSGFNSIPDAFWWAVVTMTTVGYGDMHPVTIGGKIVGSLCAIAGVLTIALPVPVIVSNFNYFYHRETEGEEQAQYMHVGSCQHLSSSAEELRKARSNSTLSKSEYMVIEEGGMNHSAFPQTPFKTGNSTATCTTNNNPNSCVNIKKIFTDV
Protocol: as §1, §2

[1] = target: T3, endogenous Kv1.3 expressed by human Jurkat T cells (Homo sapiens, UniProt P22001); test: Whole-cell patch-clamp, endogenous Kv1.3 currents in Jurkat T cells; format: cell-based
T3 construct: endogenous Kv1.3 expressed by human Jurkat T cells; endogenous in cells; host or cells: Jurkat E6-1 T cells (ATCC TIB152)
T3 sequence (P22001 whole entry): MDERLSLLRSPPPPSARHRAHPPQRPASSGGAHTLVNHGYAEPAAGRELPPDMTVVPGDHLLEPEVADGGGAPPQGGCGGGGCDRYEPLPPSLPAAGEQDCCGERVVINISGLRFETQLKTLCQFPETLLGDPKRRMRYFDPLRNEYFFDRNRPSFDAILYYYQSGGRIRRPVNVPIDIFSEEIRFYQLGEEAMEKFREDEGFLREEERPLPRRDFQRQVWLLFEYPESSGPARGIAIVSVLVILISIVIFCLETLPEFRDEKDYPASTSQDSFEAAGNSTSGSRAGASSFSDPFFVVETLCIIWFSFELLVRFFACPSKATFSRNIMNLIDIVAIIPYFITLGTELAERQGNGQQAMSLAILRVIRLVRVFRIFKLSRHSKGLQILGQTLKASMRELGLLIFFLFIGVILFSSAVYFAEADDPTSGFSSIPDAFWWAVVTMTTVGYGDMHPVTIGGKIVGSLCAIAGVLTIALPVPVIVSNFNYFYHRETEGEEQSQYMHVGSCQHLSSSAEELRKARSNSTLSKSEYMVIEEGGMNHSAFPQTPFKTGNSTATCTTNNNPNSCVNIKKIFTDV
Protocol: as §1, §2

[2] = test system: voltage-gated potassium channels on DRG cells; test: Whole-cell patch-clamp, voltage-gated K+ currents in acutely isolated DRG cells; format: cell-based, mouse; conditions: 1 μM peptide, +50 mV 400 ms pulse from -60 mV
Protocol: Mouse spinal columns were removed and placed in ice-cold HBSS; neurons were acutely dissociated and maintained as described. In brief, laminectomies were performed and bilateral DRG were dissected out. After removal of connective tissues, DRG were transferred to a 1 ml Ca^2+/Mg^2+-free HBSS containing 2 μl saturated NaHCO3, 0.35 mg L-cysteine and 20 U papain (Worthington, Lakewood, NJ, USA), and incubated at 37 °C for 10 min. The suspension of DRG was centrifuged, the supernatant was removed, 1 ml Ca^2+/Mg^2+-free HBSS containing 4 mg collagenase type II and 1.25 mg dispase type II (Worthington) was added and incubated at 37 °C for 10 min. After digestion, neurons were pelleted, suspended in neurobasal medium containing 2% B-27 supplement, 1% L-glutamine, 100 U/ml penicillin plus 100 μg/ml streptomycin, and 50 ng/ml nerve growth factor, plated on a 12 mm coverslip coated with poly-L-lysine (10 μg/ml) and cultured under a humidified atmosphere of 5% CO2/95% air at 37 °C for 18–24 h before use.
Whole-cell patch-clamp recordings were performed using an EPC 9 amplifier (HEKA Elektronik, Lambrecht/Pfalz, Germany) at room temperature (22–24 °C). Pipettes pulled from borosilicate glass (BF 150-86-10; Sutter Instrument Company, Novato, CA, USA) had resistances of 2–4 MΩ when filled with the internal solution. […]

hKv1.2 = test: Whole-cell patch-clamp, Kv1.2 heterologously expressed in HEK293T cells; format: cell-based, human; conditions: 1 μM peptide
Protocol: as §1, §2

Sequence: AFPSENPTGGCPLSDNVCSSYCKKNKFGNEGKCHGTICKCSIK (disulfide 11-33, 18-38, 22-40 (inferred)) [KTX-Sp4]
- IC50 (mKv1.1-AEHS/PSGN): 12.1 ± 4.08 nM
- Reduction of maximum current of Kv1.1 channel (mKv1.1): about 20.85%
- IC50 (mKv1.3; HEK293T cells, steady-state current at end of depolarizing pulse, n = 10, read-out: IC50 on wild-type mKv1.3-mediated steady-state current): 24.7 ± 10.8 nM
- Blocking activity on Kv1.3, times weaker than that of J123 (mKv1.3; comparison with J123): 31 times
- Reversibility of suppressive effect on Kv1.3 after washout ([1]; Jurkat T cells, bath application, washout): partially reversible
- IC50 ([1]; whole-cell patch-clamp, +50 mV 400 ms pulse from -60 mV, almost zero cytosolic Ca2+ pipette solution, Hill fit, n = 8, read-out: IC50 of inhibition of Kv1.3 current in Jurkat T cells): 235 ± 3.36 nM
- Inhibitory effect on voltage-gated K+ currents on DRG cells [2]: no significant inhibitory effect
- Reduction of maximum current of Kv1.2 channel (hKv1.2): ~7.23%
